Measurements taken from US12365706B2, “Macrocyclic peptides as potent inhibitors of K-RAS G12D mutant” (Merck Sharp & Dohme LLC, priority 2019, dated 2025).
Starred links: 1 amine or outer side, 2 acyl side, 3 side chain; linkers in the order of their positions; H or OH if unused. Positions of bridges follow the written chain, without caps; N, C: chain ends. Non-standard residues stand in square brackets, D forms with d. Residues, ends and D or L forms follow the SMILES beside them. Lys(N3) = [N-]=[N+]=NCCCC[C@H](N)C(=O)O; AEEA = NCCOCCOCC(=O)O; CH2 = C([*:1])[*:2]

Experiments:
K-Ras^G12D (GDP) [1] = biological target: T1, K-Ras^G12D (GDP) (Homo sapiens, UniProt P01116, G12D); assay: TR-FRET [K-Ras^G12D (GDP)] | EC50 (nM)
T1 construct: His-SUMO-tagged human K-Ras resides 1-169 was expressed; His-SUMO (N, cleaved yes); made in house; host or cells: E. coli Rosetta 2 (DE3)

K-Ras^G12D (GDP) [2] = biological target: T1, K-Ras^G12D (GDP); assay: TR-FRET competitive binding assay, K-Ras(G12D) loaded with GDP
[3] = test system: AsPC-1 (homozygous K-Ras(G12D)) cells; assay: Cellular phospho-ERK assay in AsPC-1 cells; assay type: cell-based
Method: The cellular K-Ras inhibitory activity was evaluated by phosphorylation levels of ERK1/2 in AsPC-1 (homozygous K-Ras(G12D)) cells. AsPC-1 cells (ATCC® CRL-1682™) were cultured in T175 flask in growth medium (RPMI 1640 Medium, GlutaMAX™ Supplement, HEPES (Gibco 72400-047) supplemented with 10% fetal bovine serum (Hyclone SH30071.03) and 1× Penicillin/Streptomycin (Gibco 15140-122). The cells were harvested in seeding medium (RPMI 1640 Medium, no phenol red (Gibco 11835-030) supplemented with 10% fetal bovine serum (Hyclone SH30071.03), 25 mM HEPES (Gibco 15630-080) and 1× Penicillin/Streptomycin (Gibco 15140-122) after 5 min of 0.25% Trypsin-EDTA (Gibco 25200-056) digestion and were seeded in 384-well tissue culture treated plate (Greiner 781091) at a density of 15,000 cells/25 μL/well, and incubated at 37° C., 5% CO2 overnight. […] Phosphorylated ERK and total ERK levels were detected by Alpha SureFire Ultra Multiplex pERK kit (PerkinElmer MPSU-PTERK) using […] and 5 μL donor bead mix, both prepared following the manufacturer's protocol. […] Ratio of pERK vs total ERK in each well was used as the final readout. Dose response curves and EC50 were analyzed using a 4-parameter logistic equation in GraphPad Prism software (GraphPad, San Diego, CA).

K-Ras(G12D) = K-Ras(G12D) (Homo sapiens, UniProt P01116, G12D); details: cited from earlier work
[4] = test system: A427 cells (which contain the K-Ras(G12D) mutation); details: dose-dependent manner; cited from earlier work
K-Ras(G12D) (GMPPNP) = biological target: T2, K-Ras(G12D) (GMPPNP) (Homo sapiens, UniProt P01116, G12D); assay: TR-FRET competitive binding assay, K-Ras(G12D) loaded with GMPPNP
T2 construct: His-SUMO-tagged human K-Ras resides 1-169 was expressed; His-SUMO (N, cleaved yes); made in house; host or cells: E. coli Rosetta 2 (DE3)

ERK1/2 = details: cited from earlier work
[5] = Cell homogenate stability assay; assay type: in vitro ADME
Method: Stability of peptides towards intracellular proteases can be evaluated using HeLa cell homogenate. Suspended HeLa cells at 1 million cells/mL are sonicated in bursts with a probe sonicator on ice until uniformly homogenized. The homogenate thus prepared is frozen and stored at −20° C. until use. The peptides are incubated with the homogenate at 1 million cells/mL and loss of the peptide with increasing time is quantified using LC-MS/MS. Briefly, the test peptide is incubated with the homogenate at 1 μM in final volume of 50 μL at 37° C. At 0, 10, 30, 60 and 120 min, the reactions are quenched with 150 μL solution of 80% (v/v) Acetonitrile in Methanol containing a known internal standard peptide. The quenched samples are centrifuged at 4000 rpm for 5 min at 10° C. and supernatants are injected for bioanalysis by liquid chromatography combined with tandem-mass spectrometer. […] In addition, pre-boiled homogenate (prepared by incubating homogenate for 30 min in boiling water) is also used as a negative control for each test peptide. The ke is first-order rate constant describing the disappearance of parent drug in the incubation and may be obtained from regressing the initial slope (ke=−(slope)) of the natural log of the analyte area/internal standard area (designated as C at an appointed time t) in C versus time (min) profile. The half-life (t½) is calculated as: […]

| SMILES | EC50 (K-Ras^G12D (GDP) [1]) [nM] | affinity for the GDP-loaded form of K-Ras (G12D) (K-Ras^G12D (GDP) [2]) | inhibition of ERK phosphorylation in an AsPC-1 cell line [3] | mutant selectivity in SOS1-mediated GDP-GTP exchange (K-Ras(G12D); G12D against G12C and wild-type K-Ras) | inhibition of SOS1-mediated GDP-GTP exchange (K-Ras(G12D)) | cell proliferation of A427 cells [4] | affinity for the GTP-loaded form of K-Ras (G12D) (K-Ras(G12D) (GMPPNP)) | phosphorylation levels of ERK1/2 (ERK1/2) | proteolytic degradation of the macrocycle in a cell homogenate stability study [5] |
| --- | --- | --- | --- | --- | --- | --- | --- | --- | --- |
| CC[C@H](C)[C@@H]1NC(=O)[C@H](Cc2ccc(O)cc2)NC(=O)[C@H](CC(C)C)NC(=O)[C@@H]2CCCN2C(=O)[C@H](NC(=O)COCCOCCNC(=O)[C@H](CCCCN=[N+]=[N-])NC(=O)CNC(=O)[C@H](CCCCN)NC(=O)[C@H](CCCCN)NC(=O)[C@H](Cc2c[nH]c3ccccc23)NC(=O)[C@H](CCCCN)NC(=O)[C@H](CCSC)NC(=O)[C@H](CCCNC(=N)N)NC(=O)[C@H](CCCNC(=N)N)NC(=O)[C@H](CC(N)=O)NC(=O)[C@H](CCC(N)=O)NC(=O)[C@H](Cc2ccccc2)NC(=O)[C@H](Cc2c[nH]c3ccccc23)NC(=O)[C@@H](NC(=O)[C@H](CCCCN)NC(=O)[C@@H](NC(=O)[C@H](CCC(N)=O)NC(=O)[C@H](CCCNC(=N)N)NC(C)=O)[C@@H](C)CC)[C@@H](C)CC)CSCSC[C@@H](C(=O)N[C@@H](CCCNC(=N)N)C(N)=O)NC(=O)[C@H](C(C)C)NC(=O)[C@@H]2CCCN2C(=O)[C@H](CC(=O)O)NC(=O)[C@H](Cc2ccc(O)cc2)NC(=O)[C@H](CO)NC1=O [SEQ ID NO: 16] (Ac-RQIKIWFQNRRMKWKKG[Lys(N3)][AEEA][dC]PLYISYDPVCR-NH2; linker 20-30 via CH2) | 400 |  |  |  |  |  |  |  |  |
| CC[C@H](C)[C@@H]1NC(=O)[C@H](Cc2ccc(O)cc2)NC(=O)[C@H](CC(C)C)NC(=O)[C@@H]2CCCN2C(=O)[C@@H](NN[C@@H](CCCNC(=N)N)C(=O)N[C@@H](CCCNC(=N)N)C(=O)N[C@@H](CCCNC(=N)N)C(=O)N[C@@H](CCCNC(=N)N)C(=O)CC=O)CSSC[C@@H](C(=O)N[C@@H](CCCNC(=N)N)C(=O)N[C@@H](CCCNC(=N)N)C(=O)N[C@@H](CCCNC(=N)N)C(=O)N[C@@H](CCCNC(=N)N)C(N)=O)NC(=O)[C@H](C(C)C)NC(=O)[C@@H]2CCCN2C(=O)[C@H](CC(=O)O)NC(=O)[C@H](Cc2ccc(O)cc2)NC(=O)[C@H](CO)NC1=O [KRpep-2d] |  | high affinity | absence of biological activity | G12D-mutant selectivity against G12C and wild-type K-Ras variants | potently inhibited | suppressed cell proliferation | weaker affinity | reduced phosphorylation levels of ERK1/2 | rapid proteolytic degradation |
